Laboratory results reported in US20100204203A1, “Chemical Compounds 637: Pyridopyrimidinediones as PDE4 Inhibitors” (priority 2007, published 2010).

Molecular target: recombinant Human Phosphodiesterase B2 (PDE4B2) (Homo sapiens, UniProt Q07343)
Assay: Human Phosphodiesterase B2 Radiometric Assay (yttrium silicate SPA beads, [3H]cyclic AMP)
Type: biochemical
Settings: recombinant human PDE4B2, radiometric SPA assay, 8 nM [3H]cyclic AMP; read-out: PDE4B2 pIC50 (converted)
Description: Human Phosphodiesterase B2 Radiometric Assay
The assay uses recombinant Human Phosphodiesterase B2 (PDE4B2) produced in house (PrAZL0163), stored at −20° C. This assay is based on the observation that 5′AMP, the product of the reaction catalysed by PDE4, binds preferentially to yttrium silicate SPA beads (Amersham Biosciences, UK) compared to the substrate, cAMP. Compounds at the appropriate concentration were preincubated at 30 C for 30 min with an assay buffer containing 50 mM HEPES (pH 7.5), 8.3 mM MgCl2, 1.7 mM EGTA, 0.01% (w/v) Brij° 35 and 0.1 mg/mL recombinant PDE4B2. The reaction was started by the addition of [3H]cyclic AMP to give a final concentration of 8 nM, and was stopped 20 minutes after the addition of the substrate by the addition of yttrium silicate SPA beads containing 18 mM Zn SO4. Bound [3H]cyclic AMP was measured using a Topcount NXT (Packard Bioscience, UK). pIC50 values (presented in Table 15) were determined using Xlfit3 curve fitting, using model 205.

recombinant Human Phosphodiesterase B2 (PDE4B2), sequence (Q07343 1-564 isoform Q07343-2): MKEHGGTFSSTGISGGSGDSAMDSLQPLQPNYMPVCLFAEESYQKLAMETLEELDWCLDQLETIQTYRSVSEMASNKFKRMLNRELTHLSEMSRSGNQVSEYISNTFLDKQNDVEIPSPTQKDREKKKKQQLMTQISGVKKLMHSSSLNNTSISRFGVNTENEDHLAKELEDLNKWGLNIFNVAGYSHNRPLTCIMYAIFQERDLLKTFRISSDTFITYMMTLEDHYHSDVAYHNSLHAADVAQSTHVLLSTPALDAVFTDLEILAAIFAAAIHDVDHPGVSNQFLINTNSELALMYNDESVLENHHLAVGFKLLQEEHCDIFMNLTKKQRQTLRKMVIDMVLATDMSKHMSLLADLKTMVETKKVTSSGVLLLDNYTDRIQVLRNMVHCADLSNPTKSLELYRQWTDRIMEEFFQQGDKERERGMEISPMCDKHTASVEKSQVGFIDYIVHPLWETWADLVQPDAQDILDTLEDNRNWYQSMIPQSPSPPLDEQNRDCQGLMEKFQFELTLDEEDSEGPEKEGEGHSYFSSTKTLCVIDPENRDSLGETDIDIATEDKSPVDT

SMILES	IC50 [nM]
C[C@H]1CN(Cc2ccc(-c3cccc(-n4c(=O)n([C@H]5CC[C@@H](NC(=O)c6cn7cc(F)ccc7n6)CC5)c(=O)c5cc(F)cnc54)c3)cc2)CCN1 (relative stereo) [Example 271, 6-Fluoro-N-{cis-4-[6-fluoro-1-(4′-{[(3S)-3-methylpiperazin-1-yl]methyl}biphenyl-3-yl)-2,4-dioxo-1,4-dihydropyrido[2,3-d]pyrimidin-3(2H)-yl]cyclohexyl}imidazo[1,2-a]pyridine-2-carboxamide]	0.00794
C[C@H](O)CN(C)Cc1cc(O)ccc1-c1cccc(-n2c(=O)n([C@H]3CC[C@@H](NCc4cn5cc(F)ccc5n4)CC3)c(=O)c3cc(F)cnc32)c1 (relative stereo) [Example 318, 6-fluoro-3-(cis-4-{[(6-fluoroimidazo[1,2-a]pyridin-2-yl)methyl]amino}cyclohexyl)-1-(4′-hydroxy-2′-{[[(2S)-2-hydroxypropyl](methyl)amino]methyl}biphenyl-3-yl)pyrido[2,3-d]pyrimidine-2,4(1H,3H)-dione]	2
O=C(N[C@H]1CC[C@@H](n2c(=O)c3cc(F)cnc3n(-c3cccc(-c4ccccc4)c3)c2=O)CC1)c1cn2cc(F)ccc2n1 [Example 1, N-[cis-4-(1-biphenyl-3-yl-6-fluoro-2,4-dioxo-1,4-dihydropyrido[2,3-d]pyrimidin-3(2H)-yl)cyclohexyl]-6-fluoroimidazo[1,2-c]pyridine-2-carboxamide]	0.0251
CN1CCCC1c1ccc2nc(C(=O)N[C@H]3CC[C@@H](n4c(=O)c5cc(F)cnc5n(-c5cccc(-c6ccccc6)c5)c4=O)CC3)cn2c1 (stereo partly drawn) [Example 2, N-[cis-4-(1-biphenyl-3-yl-6-fluoro-2,4-dioxo-1,4-dihydropyrido[2,3-d]pyrimidin-3(2H)-yl)cyclohexyl]-6-(1-methylpyrrolidin-2-yl)imidazo[1,2-a]pyridine-2-carboxamide]	0.158
O=C(N[C@H]1CC[C@@H](n2c(=O)c3cc(F)cnc3n(-c3cccc(-c4ccccc4)c3)c2=O)CC1)c1cn2ccccc2n1 [Example 3, N-[cis-4-(1-biphenyl-3-yl-6-fluoro-2,4-dioxo-1,4-dihydropyrido[2,3-d]pyrimidin-3(2H)-yl)cyclohexyl]imidazo[1,2-a]pyridine-2-carboxamide]	0.0316
O=C(Nc1ccccc1)c1cccc(-n2c(=O)n([C@H]3CC[C@@H](NC(=O)c4cn5ccccc5n4)CC3)c(=O)c3cc(F)cnc32)c1 [Example 4, N-{cis-4-[1-[3-(anilinocarbonyl)phenyl]-6-fluoro-2,4-dioxo-1,4-dihydropyrido[2,3-d]pyrimidin-3(2H)-yl]cyclohexyl}imidazo[1,2-c]pyridine-2-carboxamide]	0.0398
NCCNC(=O)c1cccc(-n2c(=O)n([C@H]3CC[C@@H](NC(=O)c4cn5ccccc5n4)CC3)c(=O)c3cc(F)cnc32)c1 [Example 5, N-{cis-4-[1-(3-{[(2-aminoethyl)amino]carbonyl}phenyl)-6-fluoro-2,4-dioxo-1,4-dihydropyrido[2,3-d]pyrimidin-3(2H)-yl]cyclohexyl}imidazo[1,2-a]pyridine-2-carboxamide]	39.8
O=C(N[C@H]1CC[C@@H](n2c(=O)c3cc(F)cnc3n(-c3cccc(C#Cc4cccnc4)c3)c2=O)CC1)c1cn2ccccc2n1 [Example 6, N-{cis-4-[6-fluoro-2,4-dioxo-1-[3-(pyridin-3-ylethynyl)phenyl]-1,4-dihydropyrido[2,3-d]pyrimidin-3(2H)-yl]cyclohexyl}imidazo[1,2-a]pyridine-2-carboxamide]	0.00794
CN(C)Cc1ccc(-c2cccc(-n3c(=O)n([C@H]4CC[C@@H](NC(=O)c5cn6cc(F)ccc6n5)CC4)c(=O)c4cc(F)cnc43)c2)cc1 [Example 12, N-{cis-4-[1-{4′-[(dimethylamino)methyl]biphenyl-3-yl}-6-fluoro-2,4-dioxo-1,4-dihydropyrido[2,3-d]pyrimidin-3(2H)-yl]cyclohexyl}-6-fluoroimidazo[1,2-a]pyridine-2-carboxamide]	0.1
O=C(N[C@H]1CC[C@@H](n2c(=O)c3cc(F)cnc3n(-c3cccc(-c4cccc(CN5CCOCC5)c4)c3)c2=O)CC1)c1cn2cc(F)ccc2n1 [Example 13, 6-fluoro-N-{cis-4-[6-fluoro-1-[3′-(morpholin-4-ylmethyl)biphenyl-3-yl]-2,4-dioxo-1,4-dihydropyrido[2,3-d]pyrimidin-3(2H)-yl]cyclohexyl}imidazo[1,2-a]pyridine-2-carboxamide.]	0.0631
O=C(N[C@H]1CC[C@@H](n2c(=O)c3cc(F)cnc3n(-c3cccc(-c4cccc(CN5CCCCC5)c4)c3)c2=O)CC1)c1cn2cc(F)ccc2n1 [Example 14, 6-fluoro-N-{cis-4-[6-fluoro-2,4-dioxo-1-[3′-(piperidin-1-ylmethyl)biphenyl-3-yl]-1,4-dihydropyrido[2,3-d]pyrimidin-3(2H)-yl]cyclohexyl}imidazo[1,2-a]pyridine-2-carboxamide.]	0.2
CSc1cccc(-c2cccc(-n3c(=O)n([C@H]4CC[C@@H](NC(=O)c5cn6cc(F)ccc6n5)CC4)c(=O)c4cc(F)cnc43)c2)c1 [Example 15, 6-fluoro-N-{cis-4-[6-fluoro-1-[3′-(methylthio)biphenyl-3-yl]-2,4-dioxo-1,4-dihydropyrido[2,3-d]pyrimidin-3(2H)-yl]cyclohexyl}imidazo[1,2-a]pyridine-2-carboxamide.]	0.0126
CN(C)Cc1cccc(-c2cccc(-n3c(=O)n([C@H]4CC[C@@H](NC(=O)c5cn6cc(F)ccc6n5)CC4)c(=O)c4cc(F)cnc43)c2)c1 [Example 16, N-{cis-4-[1-{3′-[(dimethylamino)methyl]biphenyl-3-yl}-6-fluoro-2,4-dioxo-1,4-dihydropyrido[2,3-d]pyrimidin-3(2H)-yl]cyclohexyl}-6-fluoroimidazo[1,2-a]pyridine-2-carboxamide.]	0.251
CSc1ccccc1-c1cccc(-n2c(=O)n([C@H]3CC[C@@H](NC(=O)c4cn5cc(F)ccc5n4)CC3)c(=O)c3cc(F)cnc32)c1 [Example 17, 6-fluoro-N-{cis-4-[6-fluoro-1-[2′-(methylthio)biphenyl-3-yl]-2,4-dioxo-1,4-dihydropyrido[2,3-d]pyrimidin-3(2H)-yl]cyclohexyl}imidazo[1,2-a]pyridine-2-carboxamide.]	0.00794
CC(C)(C)OC(=O)NCc1cccc(-c2cccc(-n3c(=O)n([C@H]4CC[C@@H](NC(=O)c5cn6cc(F)ccc6n5)CC4)c(=O)c4cc(F)cnc43)c2)c1 [Example 18, tert-butyl ({3′-[6-fluoro-3-(cis-4-{[(6-fluoroimidazo[1,2-a]pyridin-2-yl)carbonyl]amino}cyclohexyl)-2,4-dioxo-3,4-dihydropyrido[2,3-d]pyrimidin-1(2H)-yl]biphenyl-3-yl}methyl)carbamate.]	0.0631
O=C(N[C@H]1CC[C@@H](n2c(=O)c3cc(F)cnc3n(-c3cccc(-c4ccccc4CN4CCOCC4)c3)c2=O)CC1)c1cn2cc(F)ccc2n1 [Example 19, 6-fluoro-N-{cis-4-[6-fluoro-1-[2′-(morpholin-4-ylmethyl)biphenyl-3-yl]-2,4-dioxo-1,4-dihydropyrido[2,3-d]pyrimidin-3(2H)-yl]cyclohexyl}imidazo[1,2-a]pyridine-2-carboxamide.]	0.00316
O=C(N[C@H]1CC[C@@H](n2c(=O)c3cc(F)cnc3n(-c3cccc(-c4ccc(CCCO)cc4)c3)c2=O)CC1)c1cn2cc(F)ccc2n1 [Example 20, 6-fluoro-N-{cis-4-[6-fluoro-1-[4′-(3-hydroxypropyl)biphenyl-3-yl]-2,4-dioxo-1,4-dihydropyrido[2,3-d]pyrimidin-3(2H)-yl]cyclohexyl}imidazo[1,2-a]pyridine-2-carboxamide.]	0.02
CC(C)(C)OC(=O)NCc1ccc(-c2cccc(-n3c(=O)n([C@H]4CC[C@@H](NC(=O)c5cn6cc(F)ccc6n5)CC4)c(=O)c4cc(F)cnc43)c2)cc1 [Example 21, tert-butyl ({3′-[6-fluoro-3-(cis-4-{[(6-fluoroimidazo[1,2-a]pyridin-2-yl)carbonyl]amino}cyclohexyl)-2,4-dioxo-3,4-dihydropyrido[2,3-d]pyrimidin-1(2H)-yl]biphenyl-4-yl}methyl)carbamate.]	0.0501
O=C(N[C@H]1CC[C@@H](n2c(=O)c3cc(F)cnc3n(-c3cccc(-c4ccc(O)cc4)c3)c2=O)CC1)c1cn2cc(F)ccc2n1 [Example 22, 6-fluoro-N-{cis-4-[6-fluoro-1-(4′-hydroxybiphenyl-3-yl)-2,4-dioxo-1,4-dihydropyrido[2,3-d]pyrimidin-3(2H)-yl]cyclohexyl}imidazo[1,2-a]pyridine-2-carboxamide.]	0.0251
Cc1cc(O)ccc1-c1cccc(-n2c(=O)n([C@H]3CC[C@@H](NC(=O)c4cn5cc(F)ccc5n4)CC3)c(=O)c3cc(F)cnc32)c1 [Example 23, 6-fluoro-N-{cis-4-[6-fluoro-1-(4′-hydroxy-2′-methylbiphenyl-3-yl)-2,4-dioxo-1,4-dihydropyrido[2,3-d]pyrimidin-3(2H)-yl]cyclohexyl}imidazo[1,2-a]pyridine-2-carboxamide.]	0.0398
O=Cc1ccc(-c2cccc(-n3c(=O)n([C@H]4CC[C@@H](NC(=O)c5cn6cc(F)ccc6n5)CC4)c(=O)c4cc(F)cnc43)c2)cc1 [Example 24, 6-fluoro-N-{cis-4-[6-fluoro-1-(4′-formylbiphenyl-3-yl)-2,4-dioxo-1,4-dihydropyrido[2,3-d]pyrimidin-3(2H)-yl]cyclohexyl}imidazo[1,2-a]pyridine-2-carboxamide.]	0.00794
